Source: US20250084041A1, “ANTIMICROBIAL COMPOUNDS AND METHODS” (Curza Global, LLC, priority 2021, published 2025)
Where a name gives a salt, the structure may show the parent alone.

How the values were obtained:
S. aureus (Sa) = assay: Broth microdilution MIC, S. aureus; assay type: cell-based; settings: Staphylococcus aureus, read-out: Sa + bicarb 25 (MIC)
In short: (§1)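 Following CLSI guidance with slight modification, compounds are serially diluted two-fold (eight steps, triplicate) in CAMHB-based media, some containing 25 mM bicarbonate or 0-50% heat-inactivated human serum. Each well receives 5×10^4 CFU of bacteria pre-grown at 35±2° C to 0.5 McFarland turbidity.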

E. coli (Ec) = assay: Broth microdilution MIC, E. coli; assay type: cell-based; settings: Escherichia coli, read-out: E. coli + bicarb 25 (MIC)
In short: as §1

P. aeruginosa (Pa) = assay: Broth microdilution MIC, P. aeruginosa; assay type: cell-based; settings: Pseudomonas aeruginosa, read-out: Pa + bicarb 25 (MIC)
In short: as §1

A. baumannii (Ab) = assay: Broth microdilution MIC, A. baumannii; assay type: cell-based; settings: Acinetobacter baumannii, read-out: Ab + bicarb 25 (MIC)
In short: as §1

E. faecalis (Ef) = assay: Broth microdilution MIC, E. faecalis; assay type: cell-based; settings: Enterococcus faecalis, read-out: Ef + bicarb 25 (MIC)
In short: as §1

E. coli S30 extract = assay: E. coli S30 extract: inhibition of bacterial protein synthesis (luciferase); assay type: biochemical; settings: 37° C. 1 hour
In short: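 Coupled transcription-translation in E. coli S30 extract, programmed with pBESTluc plasmid, was run with 8-point 2-fold compound dilutions for 1 h at 37 °C. After a cold stop, luciferase luminescence was read and percent inhibition calculated against no-inhibitor controls.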

[1] = target: Rabbit Reticulocyte Lysate; assay: Rabbit Reticulocyte Lysate: inhibition of eukaryotic protein synthesis (luciferase); assay type: biochemical; settings: 30° C. 90 minutes, read-out: Retic. IC50
In short: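 Nuclease-treated rabbit reticulocyte lysate translating luciferase control RNA with complete amino acids; compounds in 8-point 2-fold dilutions, 90 min at 30° C. Luminescence read after luciferase reagent; % inhibition versus water (no-inhibitor) control, no-RNA wells as background.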

| SMILES | MIC (S. aureus (Sa)) [µg/mL] | MIC (E. coli (Ec)) [µg/mL] | MIC (P. aeruginosa (Pa)) [µg/mL] | MIC (A. baumannii (Ab)) [µg/mL] | MIC (E. faecalis (Ef)) [µg/mL] | IC50 (E. coli S30 extract) [nM] | IC50 [1] [nM] |
| --- | --- | --- | --- | --- | --- | --- | --- |
| CC(C)(N)C(=O)N1CCN(C(=O)Nc2ccn(C3CCC(CN[C@H]4CC[C@H](N)C4)CC3)c(=O)n2)CC1 (stereo partly drawn) [Compound 13, 4-(2-Amino-2-methylpropanoyl)-N-(1-(4-((((1S,3S)-3-aminocyclopentyl)amino)methyl)cyclohexyl)-2-oxo-1,2-dihydropyrimidin-4-yl)piperazine-1-carboxamide hydrochloride salt] | < 8 | < 8 | > 32 | > 32 | 8 to 32 | < 500 | ≥ 1000 |
| CC(C)(N)C(=O)N1CCN(C(=O)Nc2ccn(C3CCC(CN4CC(CN)C4)CC3)c(=O)n2)CC1 (stereo not shown) [Compound 14, 4-(2-Amino-2-methylpropanoyl)-N-(1-(4-((3-(aminomethyl)azetidin-1-yl)methyl)cyclohexyl)-2-oxo-1,2-dihydropyrimidin-4-yl)piperazine-1-carboxamide hydrochloride salt] | < 8 | < 8 | > 32 | > 32 | 8 to 32 | < 500 | ≥ 1000 |
| CC(C)(N)C(=O)N1CCN(C(=O)Nc2ccn(C3CCC(CN4CCC5(CC4)CC(N)C5)CC3)c(=O)n2)CC1 (stereo not shown) [Compound 16, 4-(2-Amino-2-methylpropanoyl)-N-(1-(4-((2-amino-7-azaspiro[3.5]nonan-7-yl)methyl)cyclohexyl)-2-oxo-1,2-dihydropyrimidin-4-yl)piperazine-1-carboxamide hydrochloride salt] | < 8 | < 8 | 8 to 32 | < 8 | < 8 | < 500 | ≥ 1000 |
| CC(C)(N)C(=O)N1CCN(C(=O)Nc2ccn([C@H]3CC[C@H](CN[C@H]4CC[C@@H](N)CC4)CC3)c(=O)n2)CC1 [Compound 17, 4-(2-Amino-2-methylpropanoyl)-N-(1-(trans-4-(((cis-4-aminocyclohexyl)amino)methyl)cyclohexyl)-2-oxo-1,2-dihydropyrimidin-4-yl)piperazine-1-carboxamide hydrochloride salt] | < 8 | < 8 | > 32 | > 32 | < 8 | < 500 | ≥ 1000 |
| CC(C)(N)C(=O)N1CCN(C(=O)Nc2ccn([C@H]3CC[C@H](CN[C@H]4CC[C@H](N)CC4)CC3)c(=O)n2)CC1 [Compound 18, 4-(2-Amino-2-methylpropanoyl)-N-(1-(trans-4-(((trans-4-aminocyclohexyl)amino)methyl)cyclohexyl)-2-oxo-1,2-dihydropyrimidin-4-yl)piperazine-1-carboxamide hydrochloride salt] | < 8 | < 8 | > 32 | > 32 | 8 to 32 | < 500 | ≥ 1000 |
| CN(C[C@H]1CC[C@H](n2ccc(NC(=O)N3CCN(C(=O)C(C)(C)N)CC3)nc2=O)CC1)[C@H]1CC[C@H](N)CC1 [Compound 19, 4-(2-Amino-2-methylpropanoyl)-N-(1-(trans-4-(((trans-4-aminocyclohexyl)(methyl)amino)methyl)cyclohexyl)-2-oxo-1,2-dihydropyrimidin-4-yl)piperazine-1-carboxamide hydrochloride salt] | < 8 | < 8 | > 32 | 8 to 32 | < 8 | < 500 | ≥ 1000 |
| CC(C)(N)C(=O)N1CCN(C(=O)Nc2ccn([C@H]3CC[C@H](CN4CCC5(CC4)CC(N)C5)CC3)c(=O)n2)CC1 [Compound 20, 4-(2-Amino-2-methylpropanoyl)-N-(1-(trans-4-((2-amino-7-azaspiro[3.5]nonan-7-yl)methyl)cyclohexyl)-2-oxo-1,2-dihydropyrimidin-4-yl)piperazine-1-carboxamide hydrochloride salt] | < 8 | < 8 | 8 to 32 | < 8 | < 8 | < 500 | ≥ 1000 |
| CCN(C[C@H]1CC[C@H](n2ccc(NC(=O)N3CCN(C(=O)C(C)(C)N)CC3)nc2=O)CC1)[C@H]1CC[C@H](N)CC1 [Compound 21, 4-(2-Amino-2-methylpropanoyl)-N-(1-(trans-4-(((trans-4-aminocyclohexyl)(ethyl)amino)methyl)cyclohexyl)-2-oxo-1,2-dihydropyrimidin-4-yl)piperazine-1-carboxamide hydrochloride salt] | < 8 | < 8 | 8 to 32 | 8 to 32 | < 8 | < 500 | ≥ 1000 |
| CC(C)(N)C(=O)N1CCN(C(=O)Nc2ccn(C3=CCC(CN4CCC5(CC4)CC(N)C5)CC3)c(=O)n2)CC1 (stereo not shown) [Compound 25, 4-(2-Amino-2-methylpropanoyl)-N-(1-(4-((2-amino-7-azaspiro[3.5]nonan-7-yl)methyl)cyclohexan-1-en-1-yl)-2-oxo-1,2-dihydropyrimidin-4-yl)piperazine-1-carboxamide hydrochloride salt] | < 8 | < 8 | 8 to 32 | < 8 | < 8 | < 500 | ≥ 1000 |
| CC(C)(N)C(=O)N1CCN(C(=O)Nc2ccn(C3=CCC(CN4CCC(CCN)CC4)CC3)c(=O)n2)CC1 (stereo not shown) [Compound 26, 4-(2-Amino-2-methylpropanoyl)-N-(1-(4-((4-(2-aminoethyl)piperidin-1-yl)methyl)cyclohex-1-en-1-yl)-2-oxo-1,2-dihydropyrimidin-4-yl)piperazine-1-carboxamide hydrochloride salt] | < 8 | < 8 | > 32 | > 32 | < 8 | < 500 | ≥ 1000 |
| CN(CC1CC=C(n2ccc(NC(=O)N3CCN(C(=O)C(C)(C)N)CC3)nc2=O)CC1)[C@H]1CC[C@H](N)CC1 (stereo partly drawn) [Compound 30, trans-4-(2-Amino-2-methylpropanoyl)-N-(1-(4-(((4-aminocyclohexyl)(methyl)amino)methyl)cyclohex-1-en-1-yl)-2-oxo-1,2-dihydropyrimidin-4-yl)piperazine-1-carboxamide hydrochloride salt] | < 8 | < 8 | > 32 | > 32 | 8 to 32 | < 500 | ≥ 1000 |
| CC(C)(N)C(=O)N1CCN(C(=O)Nc2ccn(C3CCC(CN[C@H]4C[C@H](N)C4)CC3)c(=O)n2)CC1 (stereo partly drawn) [Compound 43, trans-4-(2-Amino-2-methylpropanoyl)-N-(1-(4-(((3-aminocyclobutyl)amino)methyl)cyclohexyl)-2-oxo-1,2-dihydropyrimidin-4-yl)piperazine-1-carboxamide hydrochloride salt] | < 8 | < 8 | > 32 | > 32 | 8 to 32 | < 500 | ≥ 1000 |
| CC(C)(N)C(=O)N1CCN(C(=O)Nc2ccn(C3CCC(CN[C@H]4C[C@@H](N)C4)CC3)c(=O)n2)CC1 (stereo partly drawn) [Compound 44, cis-4-(2-Amino-2-methylpropanoyl)-N-(1-(4-(((3-aminocyclobutyl)amino)methyl)cyclohexyl)-2-oxo-1,2-dihydropyrimidin-4-yl)piperazine-1-carboxamide hydrochloride salt] | < 8 | < 8 | > 32 | > 32 | 8 to 32 | < 500 | ≥ 1000 |
| CC(C)(N)C(=O)N1CCN(C(=O)Nc2ccn(C3CCC(CN4CCC5(N)CC5C4)CC3)c(=O)n2)CC1 (stereo not shown) [Compound 45, 4-(2-Amino-2-methylpropanoyl)-N-(1-(4-((6-amino-3-azabicyclo[4.1.0]heptan-3-yl)methyl)cyclohexyl)-2-oxo-1,2-dihydropyrimidin-4-yl)piperazine-1-carboxamide hydrochloride salt] | < 8 | < 8 | > 32 | > 32 | < 8 | < 500 | ≥ 1000 |
| CC(C)(N)C(=O)N1CCN(C(=O)Nc2ccn(C3CCC(CN4CC[C@@H](CN)C4)CC3)c(=O)n2)CC1 (stereo partly drawn) [Compound 46, (S)-4-(2-Amino-2-methylpropanoyl)-N-(1-(4-((3-(aminomethyl)pyrrolidin-1-yl)methyl)cyclohexyl)-2-oxo-1,2-dihydropyrimidin-4-yl)piperazine-1-carboxamide hydrochloride salt] | < 8 | < 8 | > 32 | > 32 | > 32 | < 500 | ≥ 1000 |
| CC(C)(N)C(=O)N1CCN(C(=O)Nc2ccn(C3CCC(CN4CC[C@H](CN)C4)CC3)c(=O)n2)CC1 (stereo partly drawn) [Compound 47, (R)-4-(2-Amino-2-methylpropanoyl)-N-(1-(4-((3-(aminomethyl)pyrrolidin-1-yl)methyl)cyclohexyl)-2-oxo-1,2-dihydropyrimidin-4-yl)piperazine-1-carboxamide Hydrochloride] | < 8 | < 8 | > 32 | > 32 | > 32 | < 500 | ≥ 1000 |
